Source: patent publication US7183385B2, “Phospho-specific antibodies to Flt3 and uses thereof” (Cell Signaling Technology, Inc., priority 2002, dated 2007)

Biological target: T1, constitutively active Flt3 in EOL-1 cells (Homo sapiens, UniProt P36888)
T1 construct: expresses an endogenous, constitutively active Flt3; endogenous in cells; host or cells: EOL-1 hematopoietic cell line
T1 sequence (P36888 27-993): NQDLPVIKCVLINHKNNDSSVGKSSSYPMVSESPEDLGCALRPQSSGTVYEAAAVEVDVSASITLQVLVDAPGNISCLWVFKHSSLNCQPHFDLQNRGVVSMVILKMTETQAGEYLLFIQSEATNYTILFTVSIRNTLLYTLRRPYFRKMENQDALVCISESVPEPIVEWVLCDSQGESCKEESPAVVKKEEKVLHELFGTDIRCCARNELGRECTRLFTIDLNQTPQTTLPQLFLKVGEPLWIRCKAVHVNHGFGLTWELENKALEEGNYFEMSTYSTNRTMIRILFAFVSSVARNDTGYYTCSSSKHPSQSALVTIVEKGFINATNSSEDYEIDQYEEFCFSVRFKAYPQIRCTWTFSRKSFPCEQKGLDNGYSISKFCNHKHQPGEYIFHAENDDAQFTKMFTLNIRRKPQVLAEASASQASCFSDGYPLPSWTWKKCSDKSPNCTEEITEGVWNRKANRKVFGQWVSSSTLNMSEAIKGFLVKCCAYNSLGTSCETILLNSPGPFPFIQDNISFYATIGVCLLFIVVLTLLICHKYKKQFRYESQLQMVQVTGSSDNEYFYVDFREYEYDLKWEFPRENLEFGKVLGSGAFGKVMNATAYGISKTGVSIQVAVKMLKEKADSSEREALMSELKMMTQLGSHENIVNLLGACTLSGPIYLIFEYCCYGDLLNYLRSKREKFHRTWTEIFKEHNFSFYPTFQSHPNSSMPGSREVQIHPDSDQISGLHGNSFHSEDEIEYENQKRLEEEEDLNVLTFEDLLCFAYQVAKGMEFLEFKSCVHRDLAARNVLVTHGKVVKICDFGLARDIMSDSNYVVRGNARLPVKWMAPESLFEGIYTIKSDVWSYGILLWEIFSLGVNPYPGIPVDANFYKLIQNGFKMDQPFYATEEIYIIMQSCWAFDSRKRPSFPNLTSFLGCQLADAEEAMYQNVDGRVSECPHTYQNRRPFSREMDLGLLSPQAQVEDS
Experiment: Flt3 inhibitor effect on phospho-Flt3(Tyr591) staining in EOL-1 cells by flow cytometry
Assay type: cell-based
Conditions: serum-starved EOL-1 cells, inhibitor 4 hours at 37° C.; FIG. 6
Description: Flt3(Tyr591) phosphospecific monoclonal antibody CST #25-54 was used in flow cytometry to detect phospho-Flt3(Tyr591) in the EOL-1 hematopoietic cell line that expresses an endogenous, constitutively active Flt3. Serum-starved cells were incubated with or without the small molecule Flt3 inhibitor AG1296 for 4 hours at 37° C. The cells then were fixed with 2% paraformaldehyde for 10 minutes at 37° C. followed by cell permeabilization 90% with methanol for 30 minutes on ice. The fixed cells were then stained with the Alexa 488-conjugated Flt3 primary antibody for 1 hour at room temperature. The cells were then analyzed on a Beckman Coulter EPICS-XL flow cytometer.

Activity against Flt3 (in words): active against Flt3
Population of cells showing less staining with the phospho-Flt3(Tyr591) antibody in the presence of the drug: approximately 30 % of the total cells
SMILES: COc1cc2ncc(-c3ccccc3)nc2cc1OC [AG1296]
